Results from US20160039767A1, “PYRAZOLE DERIVATIVES AS PRMT1 INHIBITORS AND USES THEREOF” (EPIZYME, INC., priority 2013, published 2016).

Each compound was assayed against T1, PRMT1 (Homo sapiens, UniProt Q99873) (assay: PRMT1 Biochemical Assay (3H-SAM Flashplate, histone H4 peptide substrate)). Settings: Biochemical IC50 (Numerical, μM) PRMT1, single experiment or average of multiple experiments, Table 2a.
T1 construct: GST-tagged PRMT1; made in house; host or cells: High Five insect cells (baculovirus, pFastBacI)
T1 sequence (Q99873 with tags, fused parts or gaps): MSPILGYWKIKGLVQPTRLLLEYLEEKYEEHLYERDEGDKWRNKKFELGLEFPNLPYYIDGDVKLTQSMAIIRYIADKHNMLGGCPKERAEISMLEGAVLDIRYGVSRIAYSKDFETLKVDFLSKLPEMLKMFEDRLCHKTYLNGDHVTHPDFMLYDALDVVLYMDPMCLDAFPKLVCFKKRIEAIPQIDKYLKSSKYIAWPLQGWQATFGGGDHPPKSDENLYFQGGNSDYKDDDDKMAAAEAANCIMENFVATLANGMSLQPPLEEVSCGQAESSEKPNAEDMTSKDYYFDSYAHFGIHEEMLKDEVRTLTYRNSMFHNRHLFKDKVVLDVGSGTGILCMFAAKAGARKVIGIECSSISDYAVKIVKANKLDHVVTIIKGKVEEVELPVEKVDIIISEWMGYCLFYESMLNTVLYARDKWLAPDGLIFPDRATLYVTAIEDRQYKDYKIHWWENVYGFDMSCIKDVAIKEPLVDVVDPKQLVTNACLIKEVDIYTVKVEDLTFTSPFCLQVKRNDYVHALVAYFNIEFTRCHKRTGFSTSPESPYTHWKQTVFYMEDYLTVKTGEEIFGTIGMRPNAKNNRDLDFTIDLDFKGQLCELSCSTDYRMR
From the text: S-adenosylmethionine (SAM), S-adenosylhomocysteine (SAH), bicine, Tween20, dimethylsulfoxide (DMSO), bovine skin gelatin (BSG), and Tris(2-carboxyethyl)phosphine hydrochloride solution (TCEP) were purchased from Sigma-Aldrich at the highest level of purity possible. ^3H-SAM was purchase from American Radiolabeled Chemicals with a specific activity of 80 Ci/mmol. 384-well streptavidin Flashplates were purchased from PerkinElmer.
Recombinant baculovirus were generated according to Bac-to-Bac kit instructions (Life Technologies). Protein over-expression was accomplished by infecting exponentially growing High Five insect cell culture at 1.5×10^6 cell/ml with 1:100 ratio of virus. Infections were carried out at 27° C. for 48 hours, harvested by centrifugation, and stored at −80° C. for purification.
GST-tagged PRMT1 was eluted with 50 mM Tris, 2 mM glutathione, pH 7.8, dialysed in buffer A and concentrated to 1 mg/mL.
General Procedure for PRMT1 Enzyme Assays on Peptide Substrates.
The assays were all performed in a buffer consisting of 20 mM Bicine (pH=7.6), 1 mM TCEP, 0.005% BSG, and 0.002% Tween 20, prepared on the day of use. […] DMSO (1 ul) was added to Columns 11, 12, 23, 24, rows A-H for the maximum signal control and 1 ul of SAH, a known product and inhibitor of PRMT1, was added to columns 11, 12, 23, 24, rows I-P for the minimum signal control. A cocktail (40 ul) containing the PRMT1 enzyme was added by Multidrop Combi (Thermo-Fisher). The compounds were allowed to incubate with PRMT1 for 30 min at room temperature, then a cocktail (10 ul) containing SAM and peptide was added to initiate the reaction (final volume=51 ul). […] The assays were stopped by the addition of non-radiolabeled SAM (10 ul) to a final concentration of 300 uM, which dilutes the ^3H-SAM to a level where its incorporation into the peptide substrate is no longer detectable. […] The plates were then read in a PerkinElmer TopCount plate reader to measure the quantity of ^3H-labeled peptide bound to the Flashplate surface, measured as disintegrations per minute (dpm) or alternatively, referred to as counts per minute (cpm).
Where dpm=disintegrations per minute, cmpd=signal in assay well, and min and max are the respective minimum and maximum signal controls.
Where top and bottom are the normally allowed to float, but may be fixed at 100 or 0 respectively in a 3-parameter fit. The Hill Coefficient normally allowed to float but may also be fixed at 1 in a 3-parameter fit. Y is the % inhibition and X is the compound concentration.

Compound | IC50
CNCCN(C)Cc1c[nH]nc1-c1cccc(C(F)(F)F)c1 [Compound 1] | 0.123 µM
CC(C)Oc1ccc(-c2n[nH]cc2CN(C)CCN)cc1C(F)(F)F [Compound 5] | 0.00445 µM
CC(C)Oc1cc(-c2n[nH]cc2CN(C)CCN)cc(C(F)(F)F)c1 [Compound 6] | 0.0687 µM
CNCCN(C)Cc1c[nH]nc1-c1ccc(OCC(C)C)c(C(F)(F)F)c1 [Compound 10] | 0.00451 µM
CCCOc1ccc(-c2n[nH]cc2CN(C)CCNC)cc1C(F)(F)F [Compound 11] | 0.00462 µM
CNCCN(C)Cc1c[nH]nc1-c1cc(OCCC(C)C)cc(C(F)(F)F)c1 [Compound 12] | 0.00704 µM
CNCCN(C)Cc1c[nH]nc1-c1ccc(OCCCOC)c(C(F)(F)F)c1 [Compound 13] | 0.0108 µM
CNCCN(C)Cc1c[nH]nc1-c1ccc(OCCOC)c(C(F)(F)F)c1 [Compound 14] | 0.00554 µM
CNCCN(C)Cc1c[nH]nc1-c1cc(OCC(C)C)cc(C(F)(F)F)c1 [Compound 15] | 0.0162 µM
CNCCN(C)Cc1c[nH]nc1-c1cc(OCCOC)cc(C(F)(F)F)c1 [Compound 16] | 0.0204 µM
CCCOc1cc(-c2n[nH]cc2CN(C)CCNC)cc(C(F)(F)F)c1 [Compound 19] | 0.0275 µM
CNCCN(C)Cc1n[nH]cc1-c1ccc(OCCCOC)c(C(F)(F)F)c1 [Compound 20] | 0.0553 µM
CN(CCN)Cc1c[nH]nc1-c1ccc(Oc2ccccc2)c(C(F)(F)F)c1 [Compound 23] | 0.00301 µM
CNCCN(C)Cc1c[nH]nc1-c1cc(OCCCOC)cc(C(F)(F)F)c1 [Compound 24] | 0.0229 µM

The next lines start with the values.

IC50 | Compound
0.389 µM | CN(CCN)Cc1c[nH]nc1-c1cc(C(F)(F)F)cc(C(F)(F)F)c1 [Compound 2]
0.0232 µM | CN(CCN)Cc1c[nH]nc1-c1ccc(Cl)c(C(F)(F)F)c1 [Compound 3]
0.0572 µM | CN(CCN)Cc1c[nH]nc1-c1ccc(F)c(C(F)(F)F)c1 [Compound 4]
2.6 µM | CN(CCN)Cc1n[nH]cc1-c1cc(C(F)(F)F)cc(C(F)(F)F)c1 [Compound 7]
0.0165 µM | CC(C)Oc1ccc(-c2c[nH]nc2CN(C)CCN)cc1C(F)(F)F [Compound 8]
0.00988 µM | CNCCN(C)Cc1n[nH]cc1-c1ccc(OCC(C)C)c(C(F)(F)F)c1 [Compound 18]
0.0328 µM | CNCCN(C)Cc1n[nH]cc1-c1ccc(OCCOC)c(C(F)(F)F)c1 [Compound 21]
0.0189 µM | CNCCN(C)Cc1n[nH]cc1-c1cc(OCCC(C)C)cc(C(F)(F)F)c1 [Compound 22]

Each compound was assayed on RKO cells (assay: RKO Methylation Assay (In Cell Western for mono-methyl arginine and DNA content)). Settings: Homo sapiens, RKO, 72 h, read-out: In Cell Western data (Numerical, μM) EC30.
Assay type: cell-based
From the text: RKO adherent cells were purchased from ATCC (American Type Culture Collection), Manassas, Va., USA. DMEM/Glutamax medium, penicillin-streptomycin, heat inactivated fetal bovine serum, 0.05% trypsin and D-PBS were purchased from Life Technologies, Grand Island, N.Y., USA. Odyssey blocking buffer, 800CW goat anti-rabbit IgG (H+L) antibody, and Licor Odyssey infrared scanner were purchased from Licor Biosciences, Lincoln, Nebr., USA. Mono-methyl arginine antibody was purchased from Cell Signaling Technology, Danvers, Mass., USA. Methanol was purchased from VWR, Franklin, Mass., USA. 10% Tween 20 was purchased from KPL, Inc., Gaithersburg, Md., USA. DRAQ5 was purchased from Biostatus Limited, Leicestershire, UK.
RKO adherent cells were maintained in growth medium (DMEM/Glutamax medium supplemented with 10% v/v heat inactivated fetal bovine serum and 100 units/mL penicillin-streptomycin) and cultured at 37° C. under 5% CO2.
Cell Treatment, in Cell Western (ICW) for Detection of Mono-Methyl Arginine and DNA Content.
Compound (100 nL) from a 96-well source plate was added directly to 384 well cell plate. Plates were incubated at 37° C., 5% CO2 for 72 hours. After three days of incubation, plates were brought to room temperature outside of the incubator for ten minutes and blotted on paper towels to remove cell media. 50 μL of ice cold 100% methanol was added directly to each well and incubated for 30 min at room temperature. After 30 min, plates were transferred to a Biotek EL406 plate washer and washed 2 times with 100 μL per well of wash buffer (1×PBS). Next 60 μL per well of Odyssey blocking buffer (Odyssey Buffer with 0.1% Tween 20 (v/v)) were added to each plate and incubated 1 hour at room temperature. Blocking buffer was removed and 20 μL per well of primary antibody was added (mono-methyl arginine diluted 1:200 in Odyssey buffer with 0.1% Tween 20 (v/v)) and plates were incubated overnight (16 hours) at 4° C. Plates were washed 5 times with 100 µL per well of wash buffer. Next 20 μL per well of secondary antibody was added (1:200 800CW goat anti-rabbit IgG (H+L) antibody, 1:1000 DRAQ5 (Biostatus limited) in Odyssey buffer with 0.1% Tween 20 (v/v)) and incubated for 1 hour at room temperature. The plates were washed 5 times with 100 μL per well wash buffer then 2 times with 100 μL per well of water. Plates were allowed to dry at room temperature then imaged on the Licor Odyssey machine which measures integrated intensity at 700 nm and 800 nm wavelengths. Both 700 and 800 channels were scanned.
First, the ratio for each well was determined by:
Each plate included fourteen control wells of DMSO only treatment (minimum activation) as well as fourteen control wells for maximum activation treated with 20 μM of a reference compound. The average of the ratio values for each control type was calculated and used to determine the percent activation for each test well in the plate. Reference compound was serially diluted three-fold in DMSO for a total of nine test concentrations, beginning at 20 μM. Percent activation was determined and EC30 curves were generated using triplicate wells per concentration of compound.

Compound | EC30
CC(C)Oc1ccc(-c2n[nH]cc2CN(C)CCN)cc1C(F)(F)F [Compound 5] | 0.305 µM
CC(C)Oc1cc(-c2n[nH]cc2CN(C)CCN)cc(C(F)(F)F)c1 [Compound 6] | 10.8 µM
CNCCN(C)Cc1c[nH]nc1-c1ccc(OCC(C)C)c(C(F)(F)F)c1 [Compound 10] | 0.537 µM
CCCOc1ccc(-c2n[nH]cc2CN(C)CCNC)cc1C(F)(F)F [Compound 11] | 0.558 µM
CNCCN(C)Cc1c[nH]nc1-c1ccc(OCCCOC)c(C(F)(F)F)c1 [Compound 13] | 0.567 µM
CNCCN(C)Cc1c[nH]nc1-c1ccc(OCCOC)c(C(F)(F)F)c1 [Compound 14] | 0.383 µM
CN(CCN)Cc1c[nH]nc1-c1ccc(Oc2ccccc2)c(C(F)(F)F)c1 [Compound 23] | 1.51 µM

Same assay, conditions: Homo sapiens, RKO, 72 h, read-out: In Cell Western data EC30

Compound | EC30
CC(C)Oc1ccc(-c2n[nH]cc2CN(C)CCN)cc1C(F)(F)F [Compound 5] | < 3 µM
CC(C)Oc1cc(-c2n[nH]cc2CN(C)CCN)cc(C(F)(F)F)c1 [Compound 6] | 3.01 to 12 µM
CNCCN(C)Cc1c[nH]nc1-c1ccc(OCC(C)C)c(C(F)(F)F)c1 [Compound 10] | < 3 µM
CCCOc1ccc(-c2n[nH]cc2CN(C)CCNC)cc1C(F)(F)F [Compound 11] | < 3 µM
CNCCN(C)Cc1c[nH]nc1-c1ccc(OCCCOC)c(C(F)(F)F)c1 [Compound 13] | < 3 µM
CNCCN(C)Cc1c[nH]nc1-c1ccc(OCCOC)c(C(F)(F)F)c1 [Compound 14] | < 3 µM
CN(CCN)Cc1c[nH]nc1-c1ccc(Oc2ccccc2)c(C(F)(F)F)c1 [Compound 23] | < 3 µM

Same assay, conditions: Homo sapiens; RKO cells, 72 hours, mono-methyl arginine; class symbols, Table 3; read-out: In Cell Western data EC30

Compound | EC30
CC(C)Oc1ccc(-c2c[nH]nc2CN(C)CCN)cc1C(F)(F)F [Compound 8] | < 3 µM
CNCCN(C)Cc1c[nH]nc1-c1cc(OCCC(C)C)cc(C(F)(F)F)c1 [Compound 12] | < 3 µM
CNCCN(C)Cc1c[nH]nc1-c1cc(OCCOC)cc(C(F)(F)F)c1 [Compound 16] | < 3 µM
CNCCN(C)Cc1n[nH]cc1-c1ccc(OCC(C)C)c(C(F)(F)F)c1 [Compound 18] | < 3 µM
CCCOc1cc(-c2n[nH]cc2CN(C)CCNC)cc(C(F)(F)F)c1 [Compound 19] | 3.01 to 12 µM
CNCCN(C)Cc1n[nH]cc1-c1ccc(OCCCOC)c(C(F)(F)F)c1 [Compound 20] | < 3 µM
CNCCN(C)Cc1n[nH]cc1-c1ccc(OCCOC)c(C(F)(F)F)c1 [Compound 21] | < 3 µM
CNCCN(C)Cc1c[nH]nc1-c1cc(OCCCOC)cc(C(F)(F)F)c1 [Compound 24] | 3.01 to 12 µM

Same assay, conditions: Homo sapiens; RKO cells, 72 hours, mono-methyl arginine; single experiment or average of multiple experiments, Table 3a; read-out: In Cell Western data (Numerical, μM) EC30

Compound | EC30
CC(C)Oc1ccc(-c2c[nH]nc2CN(C)CCN)cc1C(F)(F)F [Compound 8] | 2.69 µM
CNCCN(C)Cc1c[nH]nc1-c1cc(OCCC(C)C)cc(C(F)(F)F)c1 [Compound 12] | 1.44 µM
CNCCN(C)Cc1c[nH]nc1-c1cc(OCCOC)cc(C(F)(F)F)c1 [Compound 16] | 2.24 µM
CNCCN(C)Cc1n[nH]cc1-c1ccc(OCC(C)C)c(C(F)(F)F)c1 [Compound 18] | 2.69 µM
CCCOc1cc(-c2n[nH]cc2CN(C)CCNC)cc(C(F)(F)F)c1 [Compound 19] | 5.07 µM
CNCCN(C)Cc1n[nH]cc1-c1ccc(OCCCOC)c(C(F)(F)F)c1 [Compound 20] | 2.04 µM
CNCCN(C)Cc1n[nH]cc1-c1ccc(OCCOC)c(C(F)(F)F)c1 [Compound 21] | 0.812 µM
CNCCN(C)Cc1c[nH]nc1-c1cc(OCCCOC)cc(C(F)(F)F)c1 [Compound 24] | 4.02 µM
